According to ChEMBL document CHEMBL1155697, “Chapecoderins A-C, new labdane-derived diterpenoids from Echinodorus macrophyllus” (J Nat Prod, 2000):
≈ marks a conversion by molar mass, not a printed value.

Tested on: L1210
Experiment: Cytotoxicity against mouse L1210 cells
Format: functional, cell-based

SMILES	IC50 [µg/mL]
CC(=O)CC[C@H]1C(C)(C)CCC[C@]1(C)C(=O)CCC1=CCOC1=O [CHAPECODERIN A]	> 10
CC(=O)[C@@H]1C[C@H]2C(C)(C)CCC[C@]2(C)[C@@]1(O)CCC1=CCOC1=O [CHAPECODERIN B]	7.2 (≈ 21.5 µM)
CC(=O)C1=C(CCC2=CCOC2=O)[C@@]2(C)CCCC(C)(C)[C@@H]2C1 [CHAPECODERIN C]	6 (≈ 19 µM)
